Read-outs that look alike come from different tables or passages of the source.
Tests used:
[1] = target: T1, NaPi-IIc (Homo sapiens, UniProt Q8N130); conditions: proximal renal tubule BBM (S1); cited from earlier work
T1 sequence (Q8N130 1-599): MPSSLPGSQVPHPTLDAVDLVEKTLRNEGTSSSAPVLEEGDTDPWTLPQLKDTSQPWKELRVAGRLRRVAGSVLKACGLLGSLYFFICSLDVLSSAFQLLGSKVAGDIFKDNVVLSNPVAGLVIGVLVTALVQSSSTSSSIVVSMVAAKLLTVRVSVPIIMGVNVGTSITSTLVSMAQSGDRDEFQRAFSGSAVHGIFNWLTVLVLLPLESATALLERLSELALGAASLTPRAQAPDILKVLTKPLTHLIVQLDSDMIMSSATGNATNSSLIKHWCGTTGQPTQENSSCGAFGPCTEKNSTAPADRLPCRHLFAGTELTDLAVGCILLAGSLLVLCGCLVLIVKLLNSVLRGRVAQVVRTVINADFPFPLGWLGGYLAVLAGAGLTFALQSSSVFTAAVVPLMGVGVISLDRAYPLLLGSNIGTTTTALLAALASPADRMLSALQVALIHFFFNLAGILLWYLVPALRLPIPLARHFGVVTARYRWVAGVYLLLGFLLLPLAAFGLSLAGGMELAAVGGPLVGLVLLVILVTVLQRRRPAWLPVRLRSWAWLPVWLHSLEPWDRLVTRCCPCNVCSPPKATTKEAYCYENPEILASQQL

[2] = target: T2, NaPi-IIa (Homo sapiens, UniProt Q06495); conditions: proximal renal tubule BBM (S1-S3); cited from earlier work
T2 sequence (Q06495 1-639): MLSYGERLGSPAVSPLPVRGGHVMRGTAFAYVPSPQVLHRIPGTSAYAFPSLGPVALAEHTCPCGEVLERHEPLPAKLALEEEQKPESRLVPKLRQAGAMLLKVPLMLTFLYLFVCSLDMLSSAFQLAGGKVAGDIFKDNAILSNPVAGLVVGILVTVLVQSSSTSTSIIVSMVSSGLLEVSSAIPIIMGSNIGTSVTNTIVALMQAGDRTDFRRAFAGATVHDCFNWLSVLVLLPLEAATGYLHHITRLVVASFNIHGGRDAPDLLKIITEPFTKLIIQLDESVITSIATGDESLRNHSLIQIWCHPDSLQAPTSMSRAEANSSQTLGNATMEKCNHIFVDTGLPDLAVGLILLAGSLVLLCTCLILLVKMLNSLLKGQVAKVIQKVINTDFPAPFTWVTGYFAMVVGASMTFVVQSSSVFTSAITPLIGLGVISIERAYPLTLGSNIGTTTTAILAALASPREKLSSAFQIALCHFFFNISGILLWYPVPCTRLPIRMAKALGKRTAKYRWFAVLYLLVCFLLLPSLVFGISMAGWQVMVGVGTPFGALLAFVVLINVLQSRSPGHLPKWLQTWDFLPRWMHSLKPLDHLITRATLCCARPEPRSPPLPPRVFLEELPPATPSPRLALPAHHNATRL

[3] = target: T3, NaPi-IIb (Homo sapiens, UniProt O95436); conditions: duodenal and jejunal BBM; cited from earlier work
T3 sequence (O95436 1-690): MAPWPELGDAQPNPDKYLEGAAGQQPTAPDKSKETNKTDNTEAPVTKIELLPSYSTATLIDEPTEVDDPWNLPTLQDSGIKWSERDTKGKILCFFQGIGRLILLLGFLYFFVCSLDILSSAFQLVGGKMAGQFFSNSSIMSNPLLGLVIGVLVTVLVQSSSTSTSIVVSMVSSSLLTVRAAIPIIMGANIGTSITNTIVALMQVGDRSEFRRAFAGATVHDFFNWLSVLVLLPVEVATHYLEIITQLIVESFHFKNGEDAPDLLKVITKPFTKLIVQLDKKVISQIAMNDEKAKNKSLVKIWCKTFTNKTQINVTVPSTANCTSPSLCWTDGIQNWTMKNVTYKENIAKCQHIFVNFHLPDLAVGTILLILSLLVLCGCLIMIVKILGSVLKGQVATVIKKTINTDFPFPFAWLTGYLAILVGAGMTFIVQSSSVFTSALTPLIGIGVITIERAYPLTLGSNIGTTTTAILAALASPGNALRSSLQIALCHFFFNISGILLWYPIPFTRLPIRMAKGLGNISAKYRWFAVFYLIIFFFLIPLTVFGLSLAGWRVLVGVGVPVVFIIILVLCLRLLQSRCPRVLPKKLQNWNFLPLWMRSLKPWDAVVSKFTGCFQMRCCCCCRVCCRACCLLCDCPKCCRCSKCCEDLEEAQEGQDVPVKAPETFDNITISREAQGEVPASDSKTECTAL

[4] = Clinical study of serum phosphate levels in CKD patients on hemodialysis (FIG. 2-5); type: in vivo, human
Text: A study has been undertaken wherein administration of a conventional phosphate binder as well as administration of nicotinamide has been compared with the administration of a combination of a phosphate binder and nicotinamide. For concrete numbers of the amount of patients tested as well as with regard to the phosphate binder and the dosing of phosphate binder and nicotinamide, further details can be taken from the following description, also with regard to the Figures.
These findings are derived from several clinical findings in which chronic renal insufficient patients underwent various medication regimes after an initial wash out phase over 4 weeks to eliminate and to control for pre-medication effects.

[5] = human, CKD patients; cited from earlier work
[6] = tested on: NaPi-IIb; conditions: intraperitoneal administration; cited from earlier work
[7] = animals; cited from earlier work
[8] = tested on: NaPi-IIb receptor; assay: Expression of NaPi-IIb receptor in the small intestine over 5 weeks (FIG. 1); type: in vivo; conditions: nicotinamide 10 mg/kg body weight, conventional binder calcium carbonate 10 mg/kg, sevelamer 20 mg/kg body weight
[9] = intraperitoneal administration; cited from earlier work

Compound	Pharmacological regulators (direction of regulation) of NaPi-IIc [1]	Pharmacological regulators (direction of regulation) of NaPi-IIa [2]	Pharmacological regulators (direction of regulation) of NaPi-IIb [3]	reduction of serum phosphate ([4]; combination of nicotinamide and known phosphate lowering agents versus dose-equivalent nicotinamide alone or binders alone)	patients achieving target levels <1.78 mmol/l ([4]; nicotinamide 250 to 1000 mg once daily as add on to previous conventional phosphate binder therapy, 9 weeks, n=126 ITT)	patients with phosphate levels <1.78 mmol/l ([4]; nicotinamide alone, 250 to 1000 mg oral once daily, 9 weeks, n=126 ITT)	lowering elevated phosphate levels [5]	expression of NaPi-IIb [6]	lowering elevated phosphate levels [7]	expression of NaPi-IIb in the small intestine [8]	gastrointestinal absorption of phosphate [9]
O=C(O)P(=O)(O)O [PFA, Phosphonoformic acid]	PFA (↓)	PFA (↓)	PFA (↓)	–	–	–	–	–	–	–	–
NC(=O)c1cccnc1 [nicotinamide]	–	–	Nicotinamide (↓)	more profound and superior reduction	69%	45%	effective	blocks	effective	downregulates	inhibits

Reference: patent publication US20190381024A1, “NICOTINAMIDE FOR LOWERING PHOSPHATE LEVELS IN HYPERPHOSPHATEMIA” (MEDICE Arzneimittel Putter GmbH & Co. KG, priority 2015, published 2019)
